According to the NIST ThermoML archive (doi:10.1021/je201130h):
± gives the expanded uncertainty stated by the source.

Settings: 298.15 K; 101.33 kPa; Liquid; Vibrating tube method

SMILES | mass density
Cc1ccccc1C [1,2-dimethylbenzene] | 875.52 ± 0.23 kg/m3
Cc1ccc(C)cc1 [1,4-dimethylbenzene] | 856.65 ± 0.23 kg/m3
CC(=O)CC(C)C [4-methylpentan-2-one] | 798.09 ± 0.24 kg/m3
C=CC(=O)O [propenoic acid] | 1059.17 ± 0.32 kg/m3
Cc1ccccc1 [toluene] | 862.34 ± 0.23 kg/m3
